Measured values as given in patent US12371400B2, “Cathepsin inhibitors” (ACADEMISCH ZIEKENHUIS LEIDEN (H.O.D.N. LUMC), priority 2017, dated 2025).
“Also recorded” adds a separate entry of the source.

Columns and labels:
[1] = molecular target: T1, hCatK (Homo sapiens, UniProt P43235); assay: In vitro inhibition of purified human Cathepsin K (fluorogenic substrate Z-FR-AMC); format: biochemical; settings: for selectivity for CatK over structurally related human Cathepsins: in words, from Table 2; for IC50: purified human Cathepsin, 30 min incubation with inhibitor, mean ± SD, triplicate
T1 sequence (P43235 115-329): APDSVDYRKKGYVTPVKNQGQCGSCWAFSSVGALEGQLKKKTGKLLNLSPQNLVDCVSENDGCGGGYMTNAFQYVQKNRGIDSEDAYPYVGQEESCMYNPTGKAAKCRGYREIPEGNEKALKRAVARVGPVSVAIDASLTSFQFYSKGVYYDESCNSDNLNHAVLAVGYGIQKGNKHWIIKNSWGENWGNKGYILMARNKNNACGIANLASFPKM
Description: Cathepsin (e.g. Cathepsin K/L/V/S/B), in particular purified human Cathepsin, was diluted in freshly prepared reaction buffer consisting of 50 mM MES pH 5.5, 25 mM EDTA and 2.5 mM DTT. 0.05% Tween20 (v/v) may be added to the reaction buffer of the Cathepsin K.
Activity assays may be conducted in a suitable manner. In the experiments described herein, the assays were typically conducted in Corning 3820 Low Volume 384 Well Assay Plate with a final assay volume of 20 μL. Plates were shaken at 600 rpm for 1 minute and centrifuged at 1000 rpm for 1 minute prior to incubation. Cathepsin activity was quantified using synthetic fluorogenic peptide substrate Z-FR-AMC (Cath K, L, V), Z-RR-AMC (Cath B) or Z-FVR-AMC (Cath S). Fluorescence intensity (λex=350 nm, λem=440 nm) was measured every 2 minutes in arbitrary units (A.U.) on a CLARIOstar (BMG Labtech) microplate reader and values were converted to product formation [AMC]. […] Measurements were performed in triplicate.
Inhibitors (200 nL, 100× final concentration in DMSO) were diluted in reaction buffer (10 μL). Purified human Cathepsin (5 μL, 4× final concentration) was added and the reaction mixture was incubated for 30 min at room temperature. Fluorogenic substrate (5 μL, 4× final concentration) was added and fluorescence intensity was measured every 2 minutes for 30-90 minutes.
The potency of the compounds as CatK inhibitors was assessed in an in vitro inhibition assay on purified human CatK (Table 2). Cathepsin was incubated with inhibitor, and the hydrolysis of substrate was initiated by addition of substrate.

[2] = molecular target: T1, hCatK; assay: Jump dilution assay for reversibility of hCatK inhibition; format: biochemical; settings: 300× dilution into fluorogenic substrate solution
Description: FIG. 3 provides a schematic overview of a jump dilution assay. A) Dose response curve for a 300-fold dilution of inhibitor concentration from full inhibition to full activity. B) Protocol and concentrations for incubation and dilution. C) Progress curves for hCatK proteolytic activity with inhibitor compounds ODN, 4, 5, 6 after dilution.
Reversibility of protease inhibition by an inhibitor may be assessed in a jump dilution assay. An exemplary jump dilution assay is provided in R. A. Copeland, A. Basavapathruni, M. Moyer, M. P. Scott, Anal. Biochem. 2011, 416, 206. In a jump dilution assay the protease (e.g. CatK) is incubated with inhibitor at high concentration to allow full active site occupation, and subsequently diluted, e.g. 300×, into fluorogenic substrate solution resulting in an inhibitor concentration corresponding with full protease activity. The hydrolysis of fluorogenic substrate is monitored over an extended time period, e.g. at least 60 minutes. […] The assay results may be compared with the results using a known irreversible inhibitor of the protease as a control. E-64 represents an established pan-Cathepsin irreversible inhibitor, suitable for use as a positive control with most cysteine protease Cathepsins.
Reversibility of hCatK inhibition was assessed in a jump dilution assay. Established pan-Cathepsin inhibitor E-64 was taken along as a control for irreversible inhibition. Purified hCatK was incubated with inhibitors at high concentration to allow full active site occupation, and subsequently diluted 300× into fluorogenic substrate solution resulting in an inhibitor concentration corresponding with full activity (FIG. 3).

[3] = molecular target: T2, Cathepsin K (Homo sapiens, UniProt P43235); assay: LC-MS of intact CatK and CatK-inhibitor complexes; format: binding; settings: for formation of covalent CatK-inhibitor complex: 6 h incubation, intact protein LC-MS; for Measured mass complex: CatK 3 μM, inhibitor 100 μM, 37° C., 6 h, deconvoluted ESI mass
T2 sequence (P43235 115-329): T1 sequence (P43235 115-329)
Description: The masses were determined from deconvoluted electrospray ionization mass spectra of CatK complexes. FIG. 4A to FIG. 4E each provide the result for a sample. In each of these FIGS. 4A to 4E the first panel provides the UPLC chromatogram, the second panel provides the electrospray ionization mass spectrum, and the third panel provides the corresponding deconvoluted electrospray ionization mass spectrum (average isotopes) with an indication of the measured mass of the predominant species. FIG. 4A provides the results obtained for intact CatK. FIG. 4B provides the results obtained for CatK.
Cathepsin K (3 μM) in reaction buffer ([…]) was incubated with inhibitor (100 μM) at 37° C. for 6 hours prior to analysis. 1 μL injections of the sample were made onto a XEVO-G2XSQTOF#YEA928 UPLC-MS system with a Waters Acquity CM detector. Chromatographic separation was carried out on a ACQUITY UPLC® Protein BEH C4 Column over a 12 minute gradient elution of 2% to 100% acetonitrile in water (0.1% formic acid) at a flow rate of 0.500 mL/min. For the first 4 minutes the flow was diverted to the waste to avoid contamination of the MS with high concentrations of buffer components. After 4 minutes, the elution flow was ionized with an ESI ionization source and measured on a XEVO-G2XSQTOF. The results were analyzed using MassLynx V4.1. The total mass of the complex was obtained by deconvolution of electrospray ionization mass spectrum envelope (average isotopes) with the MaxEnt1 function.
Cathepsin K was incubated with ODN, 4, 5 or 6 for 6 h to allow full covalent bond formation and submitted for measurement without any digestion steps, according to the method for LC-MS for intact CatK and CatK-inhibitor complexes described in the assays section above.

[4] = system: human osteoclasts (OCs); assay: Inhibition of bone resorption by human osteoclasts cultured on cortical bone slices; format: cell-based; settings: for effective dose / concentration inhibiting bone resorption: human OCs on cortical bone slices, staining at day 21
Description: The inhibitory properties on CatK of inhibitors of this invention were tested in a biologically relevant setting: inhibition of bone resorption by osteoclasts (OCs). OCs are the cells that degrade the bone matrix by secretion of acid and CatK into the resorption lacunae, resulting in the cleavage of collagen type I. Inhibition of osteoclastic CatK was studied by culturing OCs on cortical bone slices in presence of inhibitors of this invention (FIG. 5). […] OCs predominantly form deep trenches (paths) while OCs lacking CatK form small pits (circular dots). B) CD14+ monocytes on bone slices were treated with MCSF (day 0) and RANKL (day 3) to stimulate differentiation to mature OCs. Medium containing either an inhibitor or DMSO was refreshed on day 7, 10, 13 and 16. At day 21, OCs were washed away and lysed, and bone slices were stained to visualize bone resorption. C) Bone resorption visualized by staining of resorption pits with Coomassie Brilliant Blue. More staining means more resorption pits, thus more bone resorption activity. Normal D) Schematic overview of pro-Cathepsin K activation. E) CatK activity and expression in OC lysates. […] Darker bands indicate more activity/expression of CatK.

| selectivity for CatK over structurally related human Cathepsins [1] | IC50 [1] [nM] | reversibility of hCatK inhibition [2] | Measured mass complex [3] | Structure (SMILES) | formation of covalent CatK-inhibitor complex [3] | inhibition of bone resorption ([4]; all tested concentrations) | effective dose / concentration inhibiting bone resorption [4] | bone resorption staining of bone slices ([4]; 3 nM) | bone resorption staining of bone slices ([4]; 15 nM) |
| --- | --- | --- | --- | --- | --- | --- | --- | --- | --- |
| conserved | 346 ± 11.6 | irreversible | 24231 | C#CC(C)NC(=O)[C@H](CC(C)(C)F)N[C@@H](c1ccc(-c2ccc(S(C)(=O)=O)cc2)cc1)C(F)(F)F (mixture of isomers) [Compound 5, (S)—N—((R/S)-but-3-yn-2-yl)-4-fluoro-4-methyl-2-(((S)-2,2,2-trifluoro-1-(4′-(methylsulfonyl)-[1,1′-biphenyl]-4-yl)ethyl)amino)pentanamide] | formation of a covalent hCatK—inhibitor complex; also recorded: covalent complex formed | non-conclusive |  |  |  |
| conserved | 293 ± 8.73 | irreversible | 24217 | C#CCNC(=O)[C@H](CC(C)(C)F)N[C@@H](c1ccc(-c2ccc(S(C)(=O)=O)cc2)cc1)C(F)(F)F [Compound 4, (S)-4-fluoro-4-methyl-N-(prop-2-yn-1-yl)-2-(((S)-2,2,2-trifluoro-1-(4′-(methylsulfonyl)-[1,1′-biphenyl]-4-yl)ethyl)amino)pentanamide] | formation of a covalent hCatK—inhibitor complex; also recorded: covalent complex formed |  | ≥ 80 nM |  |  |
|  | 0.56 ± 0.002 | (fast) reversible inhibitor | 24244 | CC(C)(F)C[C@H](N[C@@H](c1ccc(-c2ccc(S(C)(=O)=O)cc2)cc1)C(F)(F)F)C(=O)NC1(C#N)CC1 [ODN, (S)—N-(1-cyanocyclopropyl)-4-fluoro-4-methyl-2-(((S)-2,2,2-trifluoro-1-(4′-(methylsulfonyl)-[1,1′-biphenyl]-4-yl)ethyl)amino)pentanamide, reference compound] | covalent complex formed |  | around 15 nM | formation of deep trenches | formation of shallow pits |
